Structures can show the parent of a compound that is named as a salt. Where two headings read alike, the source gives them in different places.
Molecular target: T1, human recombinant P2X7 receptor (Homo sapiens, UniProt Q99572)
T1 construct: expressed in transfected cells
T1 sequence (Q99572 1-595): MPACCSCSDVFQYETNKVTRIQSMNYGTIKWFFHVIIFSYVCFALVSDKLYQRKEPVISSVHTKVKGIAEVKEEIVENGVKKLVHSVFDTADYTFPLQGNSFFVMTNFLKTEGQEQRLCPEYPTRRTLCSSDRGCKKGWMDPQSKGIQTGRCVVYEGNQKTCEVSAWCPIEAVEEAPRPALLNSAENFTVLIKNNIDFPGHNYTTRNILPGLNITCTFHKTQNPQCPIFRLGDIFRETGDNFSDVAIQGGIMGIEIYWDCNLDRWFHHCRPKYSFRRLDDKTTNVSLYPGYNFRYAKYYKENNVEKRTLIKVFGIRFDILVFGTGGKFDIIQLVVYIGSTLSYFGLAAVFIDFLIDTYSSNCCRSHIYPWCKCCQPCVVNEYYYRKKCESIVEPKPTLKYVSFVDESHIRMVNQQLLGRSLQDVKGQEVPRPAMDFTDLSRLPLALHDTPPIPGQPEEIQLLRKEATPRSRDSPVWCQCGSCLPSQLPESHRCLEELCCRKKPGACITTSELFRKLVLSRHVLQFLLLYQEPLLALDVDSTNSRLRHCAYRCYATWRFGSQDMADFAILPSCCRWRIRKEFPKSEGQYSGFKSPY
Assay: YO-PRO assay: P2X7 receptor antagonistic activity in HEK cells stably expressing P2X7
Type: cell-based
In short: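 HEK cells stably transfected with human P2X7 (cloned from blood cDNA) were loaded with 0.5 μM YO-PRO-1. They were exposed to antagonist (10 concentrations, top 10 μM, 1/3 steps, duplicate) together with 250 μM ATP for 90 min, and dye uptake was read by FLIPR at ex 485/em 530. IC50 from maximum fluorescence versus concentration.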

[1] = antagonistic activity with respect to the P2X7 receptor, read-out: IC50

IC50 [1] [nM] | IC50 (IC50, antagonistic activity with respect to the P2X7 receptor) [nM] | Structure (SMILES)
34 | – | Cc1ncc(C(CNC(=O)c2ccc3[nH]ccc3c2Cl)N2CCC(F)(F)C2)cn1 (racemic) [Example 82, rac-4-Chloro-1H-indole-5-carboxylic acid [2-(3,3-difluoro-pyrrolidin-1-yl)-2-(2-methyl-pyrimidin-5-yl)-ethyl]-amide]
12 | – | Cc1ncc(C(CNC(=O)c2ccc3[nH]ccc3c2Cl)C2CCC(F)(F)CC2)cn1 (racemic) [Example 93, rac-4-Chloro-1H-indole-5-carboxylic acid [2-(4,4-difluoro-cyclohexyl)-2-(2-methyl-pyrimidin-5-yl)-ethyl]-amide]
12 | – | Cc1ncc(C(CNC(=O)c2ccc3[nH]ccc3c2Cl)N2CCC(F)CC2)cn1 (racemic) [Example 78, rac-4-Chloro-1H-indole-5-carboxylic acid [2-(4-fluoro-piperidin-1-yl)-2-(2-methyl-pyrimidin-5-yl)-ethyl]-amide]
303 | – | Cc1ncc(C(CNC(=O)c2ccc3[nH]ccc3c2Cl)NCC(C)C)cn1 (racemic) [Example 85, rac-4-Chloro-1H-indole-5-carboxylic acid [2-isobutylamino-2-(2-methyl-pyrimidin-5-yl)-ethyl]-amide]
– | 28 | Cc1ncc(C(CNC(=O)c2ccc3[nH]ccc3c2Cl)N2CC3CC(C2)O3)cn1 (stereo not shown) [Example 95, 4-Chloro-1H-indole-5-carboxylic acid [2-(2-methyl-pyrimidin-5-yl)-2-(6-oxa-3-aza-bicyclo[3.1.1]hept-3-yl)-ethyl]-amide]
55 | – | COc1ccc(C(CNC(=O)c2ccc3[nH]ccc3c2Cl)N2CCOCC2)cc1 (racemic) [Example 59, rac-4-Chloro-1H-indole-5-carboxylic acid [2-(4-methoxy-phenyl)-2-morpholin-4-yl-ethyl]-amide]
35 | – | Cc1ncc(C(CNC(=O)c2cc(C)c3[nH]ccc3c2C)N2CCOCC2)cn1 (racemic) [Example 104, rac-4,7-Dimethyl-1H-indole-5-carboxylic acid [2-(2-methyl-pyrimidin-5-yl)-2-morpholin-4-yl-ethyl]-amide]
30 | – | CCc1c(C(=O)NCC(c2cnc(C)nc2)N2CCOCC2)ccc2[nH]ccc12 (racemic) [Example 101, rac-4-Ethyl-1H-indole-5-carboxylic acid [2-(2-methyl-pyrimidin-5-yl)-2-morpholin-4-yl-ethyl]-amide]
353 | – | O=C(NCC(c1ccnc(O)c1)N1CCOCC1)c1ccc2[nH]ccc2c1Cl (racemic) [Example 91, rac-4-Chloro-1H-indole-5-carboxylic acid [2-morpholin-4-yl-2-(2-hydroxypyridin-4-yl)-ethyl]-amide]
16 | – | Cc1ncc(C(CNC(=O)c2ccc3[nH]ccc3c2Cl)C2CCOCC2)cn1 (racemic) [Example 51, rac-4-Chloro-1H-indole-5-carboxylic acid [2-(2-methyl-pyrimidin-5-yl)-2-(tetrahydro-pyran-4-yl)-ethyl]-amide]
26 | – | Cc1ncc(C(CNC(=O)c2ccc3[nH]ccc3c2Cl)N2CCCOCC2)cn1 (racemic) [Example 81, rac-4-Chloro-1H-indole-5-carboxylic acid [2-(2-methyl-pyrimidin-5-yl)-2-[1,4]oxazepan-4-yl-ethyl]-amide]
149 | – | Cc1ncc(C(CNC(=O)c2cc(C(C)(C)O)c3[nH]ccc3c2Cl)N2CCOCC2)cn1 (racemic) [Example 116, rac-4-Chloro-7-(1-hydroxy-1-methyl-ethyl)-1H-indole-5-carboxylic acid [2-(2-methyl-pyrimidin-5-yl)-2-morpholin-4-yl-ethyl]-amide]
91 | – | Cc1ncc(C(CNC(=O)c2ccc3[nH]ccc3c2Cl)OC2CCOCC2)cn1 (racemic) [Example 70, rac-4-Chloro-1H-indole-5-carboxylic acid [2-(2-methyl-pyrimidin-5-yl)-2-(tetrahydro-pyran-4-yloxy)-ethyl]-amide]
280 | – | Cc1ncc(C(CNC(=O)c2ccc3[nH]ccc3c2Cl)N(C)CC(C)C)cn1 (racemic) [Example 86, rac-4-Chloro-1H-indole-5-carboxylic acid [2-(isobutyl-methyl-amino)-2-(2-methyl-pyrimidin-5-yl)-ethyl]-amide]
98 | – | Cc1ncc(C(CNC(=O)c2ccc3[nH]ccc3c2Cl)N2CCS(=O)(=O)CC2)cn1 (racemic) [Example 92, rac-4-Chloro-1H-indole-5-carboxylic acid [2-(1,1-dioxo-thiomorpholin-4-yl)-2-(2-methyl-pyrimidin-5-yl)-ethyl]-amide]
21 | – | COCCCc1cc(C(=O)NCC(c2cnc(C)nc2)N2CCOCC2)c(Cl)c2cc[nH]c12 (racemic) [Example 99, rac-4-Chloro-7-(3-methoxy-propyl)-1H-indole-5-carboxylic acid [2-(2-methyl-pyrimidin-5-yl)-2-morpholin-4-yl-ethyl]-amide]

Further lines, the molecule ahead of its results:

Structure (SMILES) | IC50 [1] [nM] | IC50 (IC50, antagonistic activity with respect to the P2X7 receptor) [nM]
O=C(NCC(c1cccc(F)c1)N1CCCCC1)c1ccc2[nH]ccc2c1Cl (racemic) [Example 43, rac-4-Chloro-1H-indole-5-carboxylic acid [2-(3-fluoro-phenyl)-2-piperidin-1-yl-ethyl]-amide] | 163 | –
Cc1ncc(C(CNC(=O)c2cc(OCCOC(C)(C)C)c3[nH]ccc3c2Cl)N2CCOCC2)cn1 (racemic) [Example 112, rac-7-(2-tert-Butoxy-ethoxy)-4-chloro-1H-indole-5-carboxylic acid [2-(2-methyl-pyrimidin-5-yl)-2-morpholin-4-yl-ethyl]-amide] | 32 | –
CS(=O)(=O)N1CCC(C(CNC(=O)c2ccc3[nH]ccc3c2Cl)c2cccnc2)CC1 (racemic) [Example 23, rac-4-Chloro-1H-indole-5-carboxylic acid [2-(1-methanesulfonyl-piperidin-4-yl)-2-pyridin-3-yl-ethyl]-amide] | 56 | –
O=C(NCC(c1ccc(C(F)(F)F)cc1)N1CCOCC1)c1ccc2[nH]ccc2c1Cl (racemic) [Example 49, rac-4-Chloro-1H-indole-5-carboxylic acid [2-morpholin-4-yl-2-(4-trifluoromethyl-phenyl)-ethyl]-amide] | 34 | –
O=C(NCC(c1ccc(OC(F)(F)F)cc1)N1CCOCC1)c1ccc2[nH]ccc2c1Cl (racemic) [Example 48, rac-4-Chloro-1H-indole-5-carboxylic acid [2-morpholin-4-yl-2-(4-trifluoromethoxy-phenyl)-ethyl]-amide] | 134 | –
O=C(NCC(c1ccccc1F)N1CCOCC1)c1ccc2[nH]ccc2c1Cl (racemic) [Example 35, rac-4-Chloro-1H-indole-5-carboxylic acid [2-(2-fluoro-phenyl)-2-morpholin-4-yl-ethyl]-amide] | 161 | –
Cn1cc(C(CNC(=O)c2ccc3[nH]ccc3c2Cl)N2CCOCC2)cn1 (racemic) [Example 28, rac-4-Chloro-1H-indole-5-carboxylic acid [2-(1-methyl-1H-pyrazol-4-yl)-2-morpholin-4-yl-ethyl]-amide] | 66 | –
O=C(NCC(c1cccnc1)N1CCCCC1)c1ccc2[nH]ccc2c1Cl (racemic) [Example 46, rac-4-Chloro-1H-indole-5-carboxylic acid (2-piperidin-1-yl-2-pyridin-3-yl-ethyl)-amide] | 39 | –
O=C(NCC(c1cncnc1)N1CCCCC1)c1ccc2[nH]ccc2c1Cl (racemic) [Example 27, rac-4-Chloro-1H-indole-5-carboxylic acid (2-piperidin-1-yl-2-pyrimidin-5-yl-ethyl)-amide] | 8.7 | –
Cc1ccc(C(CNC(=O)c2ccc3[nH]ccc3c2Cl)N2CCOCC2)cn1 (racemic) [Example 7, rac-4-Chloro-1H-indole-5-carboxylic acid [2-(6-methyl-pyridin-3-yl)-2-morpholin-4-yl-ethyl]-amide] | 19 | –
Cc1ccc(C(CNC(=O)c2ccc3[nH]ccc3c2Cl)N2CCOCC2)cc1 (racemic) [Example 47, rac-4-Chloro-1H-indole-5-carboxylic acid (2-morpholin-4-yl-2-p-tolyl-ethyl)-amide] | 54 | –
O=C(NCC(c1ccc(Cl)nc1)N1CCOCC1)c1ccc2[nH]ccc2c1Cl (racemic) [Example 24, rac-4-Chloro-1H-indole-5-carboxylic acid [2-(6-chloro-pyridin-3-yl)-2-morpholin-4-yl-ethyl]-amide] | 4.7 | –
Cc1ncc(C(CNC(=O)c2ccc3[nH]ccc3c2Cl)N2CCOCC2)cn1 (single isomer, unassigned) [Example 4, 4-Chloro-1H-indole-5-carboxylic acid [2-(2-methyl-pyrimidin-5-yl)-2-morpholin-4-yl-ethyl]-amide] | 9.4 | –
CN1CCC(C(CNC(=O)c2ccc3[nH]ccc3c2Cl)c2cccnc2)CC1 (racemic) [Example 21, rac-4-Chloro-1H-indole-5-carboxylic acid [2-(1-methyl-piperidin-4-yl)-2-pyridin-3-yl-ethyl]-amide formic acid salt] | 584 | –
Cc1ncc(C(CNC(=O)c2ccc3[nH]ccc3c2Cl)N2CCCC2)cn1 (racemic) [Example 14, rac-4-Chloro-1H-indole-5-carboxylic acid [2-(2-methyl-pyrimidin-5-yl)-2-pyrrolidin-1-yl-ethyl]-amide] | 286 | –

— patent US9718774B2, “Indole carboxamide derivatives as P2X7 receptor antagonist” (ACTELION PHARMACEUTICALS LTD, priority 2012, dated 2017)
